The values that follow come from the Kinase Knowledgebase extract (Sharma et al. 2016).

For one assay, the target named is PIK3CB (Human) (UniProt P42338). Kind of assay: Assessment of PIK3CB Kinase Activity.
The target of the next assay is PIK3CA (human) (UniProt P42336). Nature of the assay: Assessment of PIK3CA Kinase Activity.
The target in a further assay is PIK3CD (Human) (UniProt O00329). Kind of assay: Assessment of PIK3CD Kinase Activity.
The target of another assay is PIK3CG (human) (UniProt P48736). Nature of the assay: Assessment of PIK3CG Kinase Activity.
Sequence of PIK3CG (human) (P48736 whole entry, looked up): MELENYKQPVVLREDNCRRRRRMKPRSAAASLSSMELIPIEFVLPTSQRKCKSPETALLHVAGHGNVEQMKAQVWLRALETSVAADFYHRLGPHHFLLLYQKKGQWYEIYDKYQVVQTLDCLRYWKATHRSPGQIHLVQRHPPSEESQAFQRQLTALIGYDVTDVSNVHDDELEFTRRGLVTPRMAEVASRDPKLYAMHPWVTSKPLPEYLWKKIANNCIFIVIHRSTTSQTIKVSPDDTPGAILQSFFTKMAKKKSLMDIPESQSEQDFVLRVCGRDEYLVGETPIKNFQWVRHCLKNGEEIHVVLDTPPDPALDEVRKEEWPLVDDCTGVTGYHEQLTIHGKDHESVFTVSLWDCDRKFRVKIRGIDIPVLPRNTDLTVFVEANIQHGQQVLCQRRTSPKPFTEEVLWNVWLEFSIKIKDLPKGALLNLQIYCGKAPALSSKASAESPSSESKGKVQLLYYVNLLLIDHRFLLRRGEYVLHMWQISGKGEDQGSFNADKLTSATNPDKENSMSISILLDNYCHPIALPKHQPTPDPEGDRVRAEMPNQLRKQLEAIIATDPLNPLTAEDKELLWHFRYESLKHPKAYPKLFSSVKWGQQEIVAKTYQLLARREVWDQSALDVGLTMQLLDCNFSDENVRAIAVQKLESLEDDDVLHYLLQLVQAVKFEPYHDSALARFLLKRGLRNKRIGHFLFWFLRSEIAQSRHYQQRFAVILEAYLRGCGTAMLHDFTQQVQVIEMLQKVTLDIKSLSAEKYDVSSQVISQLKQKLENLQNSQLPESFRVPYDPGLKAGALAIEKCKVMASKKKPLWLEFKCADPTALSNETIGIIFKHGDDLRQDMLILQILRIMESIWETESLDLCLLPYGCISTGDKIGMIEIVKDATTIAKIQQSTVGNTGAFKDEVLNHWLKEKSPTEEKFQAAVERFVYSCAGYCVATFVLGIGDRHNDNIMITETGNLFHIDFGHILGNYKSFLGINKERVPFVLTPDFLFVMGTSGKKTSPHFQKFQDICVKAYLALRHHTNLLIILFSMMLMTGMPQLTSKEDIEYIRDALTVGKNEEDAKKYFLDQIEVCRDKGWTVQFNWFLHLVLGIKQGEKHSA

Sequence of PIK3CA (human) (P42336 whole entry, looked up): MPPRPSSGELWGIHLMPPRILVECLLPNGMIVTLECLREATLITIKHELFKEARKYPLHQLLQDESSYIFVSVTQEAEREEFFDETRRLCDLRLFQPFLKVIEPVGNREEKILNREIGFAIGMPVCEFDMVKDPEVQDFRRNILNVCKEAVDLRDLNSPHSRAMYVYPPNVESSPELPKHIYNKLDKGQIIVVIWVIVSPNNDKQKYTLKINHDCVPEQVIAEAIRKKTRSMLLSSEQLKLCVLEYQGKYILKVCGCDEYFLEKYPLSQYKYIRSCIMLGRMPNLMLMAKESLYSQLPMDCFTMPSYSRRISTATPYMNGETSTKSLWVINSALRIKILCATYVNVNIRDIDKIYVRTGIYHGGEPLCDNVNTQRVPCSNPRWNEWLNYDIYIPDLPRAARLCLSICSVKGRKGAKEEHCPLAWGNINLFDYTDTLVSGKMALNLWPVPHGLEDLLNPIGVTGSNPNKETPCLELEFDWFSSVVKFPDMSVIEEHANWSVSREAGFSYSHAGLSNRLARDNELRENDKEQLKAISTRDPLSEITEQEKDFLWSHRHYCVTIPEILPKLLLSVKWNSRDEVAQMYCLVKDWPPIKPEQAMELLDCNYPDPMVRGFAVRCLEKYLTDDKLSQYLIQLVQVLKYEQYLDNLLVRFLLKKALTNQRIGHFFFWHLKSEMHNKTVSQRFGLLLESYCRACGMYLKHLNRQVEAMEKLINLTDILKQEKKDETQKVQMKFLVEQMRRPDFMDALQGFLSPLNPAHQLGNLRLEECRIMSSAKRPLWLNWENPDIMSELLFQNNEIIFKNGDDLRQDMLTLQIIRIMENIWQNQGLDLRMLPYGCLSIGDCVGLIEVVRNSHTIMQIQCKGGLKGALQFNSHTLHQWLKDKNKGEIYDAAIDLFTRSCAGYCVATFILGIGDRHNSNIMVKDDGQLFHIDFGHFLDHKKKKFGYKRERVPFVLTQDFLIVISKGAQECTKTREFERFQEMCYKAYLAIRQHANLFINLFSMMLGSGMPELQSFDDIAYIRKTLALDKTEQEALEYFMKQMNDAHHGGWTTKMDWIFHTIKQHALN
Sequence of PIK3CB (Human) (P42338 whole entry, looked up): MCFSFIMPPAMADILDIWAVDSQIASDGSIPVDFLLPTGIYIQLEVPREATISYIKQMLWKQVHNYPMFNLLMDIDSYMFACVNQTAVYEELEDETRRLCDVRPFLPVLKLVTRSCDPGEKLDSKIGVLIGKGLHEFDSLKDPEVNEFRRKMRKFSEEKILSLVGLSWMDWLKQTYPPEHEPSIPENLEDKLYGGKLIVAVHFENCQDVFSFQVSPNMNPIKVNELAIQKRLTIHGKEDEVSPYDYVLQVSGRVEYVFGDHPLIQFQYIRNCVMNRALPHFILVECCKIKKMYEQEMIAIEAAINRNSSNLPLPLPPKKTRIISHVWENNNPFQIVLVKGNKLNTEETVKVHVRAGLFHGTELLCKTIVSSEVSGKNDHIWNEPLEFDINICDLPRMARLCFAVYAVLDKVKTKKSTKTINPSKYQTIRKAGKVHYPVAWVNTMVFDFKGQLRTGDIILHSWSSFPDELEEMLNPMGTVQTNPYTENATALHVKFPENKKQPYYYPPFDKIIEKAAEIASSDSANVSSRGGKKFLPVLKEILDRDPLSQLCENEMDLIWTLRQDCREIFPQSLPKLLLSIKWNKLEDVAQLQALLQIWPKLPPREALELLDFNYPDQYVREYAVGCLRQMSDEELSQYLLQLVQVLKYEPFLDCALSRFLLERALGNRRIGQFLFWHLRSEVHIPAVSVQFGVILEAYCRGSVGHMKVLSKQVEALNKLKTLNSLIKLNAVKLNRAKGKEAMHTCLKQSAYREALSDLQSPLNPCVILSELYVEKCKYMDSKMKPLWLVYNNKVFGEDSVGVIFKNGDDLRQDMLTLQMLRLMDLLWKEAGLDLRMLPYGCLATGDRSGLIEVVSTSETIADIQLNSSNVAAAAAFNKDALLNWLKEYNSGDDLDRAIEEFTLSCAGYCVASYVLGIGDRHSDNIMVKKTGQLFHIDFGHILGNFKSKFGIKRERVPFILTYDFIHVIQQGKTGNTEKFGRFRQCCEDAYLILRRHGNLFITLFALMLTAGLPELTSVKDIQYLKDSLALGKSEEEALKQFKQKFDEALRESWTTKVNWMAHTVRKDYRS
Sequence of PIK3CD (Human) (O00329 whole entry, looked up): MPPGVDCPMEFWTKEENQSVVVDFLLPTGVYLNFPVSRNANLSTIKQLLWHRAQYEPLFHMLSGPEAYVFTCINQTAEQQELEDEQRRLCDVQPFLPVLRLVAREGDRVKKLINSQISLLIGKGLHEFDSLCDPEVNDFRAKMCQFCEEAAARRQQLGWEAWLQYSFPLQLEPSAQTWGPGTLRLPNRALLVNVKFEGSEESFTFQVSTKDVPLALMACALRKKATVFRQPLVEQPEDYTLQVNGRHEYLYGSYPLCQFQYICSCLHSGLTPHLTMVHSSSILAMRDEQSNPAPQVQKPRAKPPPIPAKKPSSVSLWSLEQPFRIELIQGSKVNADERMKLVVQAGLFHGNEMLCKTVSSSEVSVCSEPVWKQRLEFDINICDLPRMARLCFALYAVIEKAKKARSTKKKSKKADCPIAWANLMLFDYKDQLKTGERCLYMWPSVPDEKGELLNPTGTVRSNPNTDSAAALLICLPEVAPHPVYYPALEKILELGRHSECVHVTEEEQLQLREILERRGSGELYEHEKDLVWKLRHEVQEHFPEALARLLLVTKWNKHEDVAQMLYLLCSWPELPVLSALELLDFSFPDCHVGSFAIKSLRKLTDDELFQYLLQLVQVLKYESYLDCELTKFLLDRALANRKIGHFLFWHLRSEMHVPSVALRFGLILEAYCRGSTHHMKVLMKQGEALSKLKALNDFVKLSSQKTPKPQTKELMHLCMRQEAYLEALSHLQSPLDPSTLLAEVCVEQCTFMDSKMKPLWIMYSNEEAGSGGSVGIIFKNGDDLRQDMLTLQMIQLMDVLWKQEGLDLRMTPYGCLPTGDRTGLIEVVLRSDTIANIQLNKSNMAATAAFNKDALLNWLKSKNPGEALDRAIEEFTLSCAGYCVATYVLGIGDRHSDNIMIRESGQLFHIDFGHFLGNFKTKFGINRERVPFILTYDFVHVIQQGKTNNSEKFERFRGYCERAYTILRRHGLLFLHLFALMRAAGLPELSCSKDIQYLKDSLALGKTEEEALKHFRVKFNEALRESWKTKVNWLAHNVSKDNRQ

As to `COc1cc(-c2cccc3cc([C@H](C)Nc4nc(N)ncc4C(=O)NC4CC4)n(-c4ccccc4)c(=O)c23)ccn1`, the IC50 was greater than 10 µM against PIK3CB (Human), greater than 10 µM against PIK3CA (human) and less than 0.1 µM at PIK3CD (Human).
As to `C[C@H](Nc1nc(N)ncc1-c1ccccc1)c1cc2cccc(Cl)c2c(=O)n1-c1ccccc1`, the IC50 against PIK3CB (Human) was greater than 10 µM; at PIK3CA (human), greater than 10 µM; against PIK3CG (human), 0.1 to 1 µM.
As for `CC(=O)Nc1cnc(N)nc1N[C@@H](C)c1cc2cccc(Cl)c2c(=O)n1-c1ccccc1`, the IC50 on PIK3CB (Human), at PIK3CA (human) and against PIK3CD (Human) was greater than 10 µM each time.
On to `C[C@H](Nc1nc(Cl)ncc1[N+](=O)[O-])c1cc2cccc(Cl)c2c(=O)n1-c1ccccc1`, for which the IC50 was greater than 10 µM on PIK3CB (Human), greater than 10 µM against PIK3CA (human) and 0.1 to 1 µM at PIK3CD (Human).
On to `COc1cc(-c2cccc3cc([C@H](C)Nc4nc(N)ncc4C(=O)N(C)CCO)n(-c4ccccc4)c(=O)c23)ccn1`, for which the IC50 against PIK3CB (Human) and against PIK3CA (human) was greater than 10 µM each time.
As for `C[C@H](Nc1nc(N)ncc1C#N)c1cc2cccc(-c3ccn(C)c(=O)c3)c2c(=O)n1-c1ccccc1`, the IC50 on PIK3CB (Human) and against PIK3CA (human) was greater than 10 µM in each case.
As to `C[C@H](Nc1nc(N)ncc1C(=O)N1CCC1)c1cc2cccc(Cl)c2c(=O)n1-c1ccccc1`, the IC50 against PIK3CB (Human) was greater than 10 µM; against PIK3CA (human), greater than 10 µM; on PIK3CG (human) it was less than 0.1 µM.
For the compound `COc1cc(-c2cccc3cc([C@H](C)Nc4nc(N)ncc4C(=O)N4CCC4)n(-c4ccccc4)c(=O)c23)ccn1`, the IC50 against PIK3CB (Human) is greater than 10 µM; on PIK3CA (human) it was greater than 10 µM; against PIK3CG (human), less than 0.1 µM.
Consider `C[C@H](Nc1nc(N)ncc1C(=O)N1CC(F)(F)C1)c1cc2cccc(Cl)c2c(=O)n1-c1ccccc1`, for which the IC50 at PIK3CB (Human) and against PIK3CA (human) was greater than 10 µM throughout.
`C[C@H](Nc1nc(N)ncc1S(C)(=O)=O)c1cc2cccc(Cl)c2c(=O)n1-c1ccccc1`: the IC50 on PIK3CB (Human) was greater than 10 µM; at PIK3CA (human), greater than 10 µM; against PIK3CG (human) it was 0.1 to 1 µM.
Turning to `COc1cc(-c2cccc3cc([C@H](C)Nc4nc(N)ncc4C(=O)N4CCOCC4)n(-c4ccccc4)c(=O)c23)ccn1`, the IC50 at PIK3CB (Human) and against PIK3CA (human) was greater than 10 µM each time.
In the case of `C[C@H](Nc1nc(N)ncc1C#N)c1cc2cccc(-c3cccc(F)c3)c2c(=O)n1-c1ccccc1`, the IC50 on PIK3CB (Human) is 0.1 to 1 µM; against PIK3CG (human) it was less than 0.1 µM; against PIK3CD (Human) it was less than 0.1 µM.
Take `C[C@H](Nc1nc(N)ncc1C#N)c1cc2cccc(-c3ccc(S(C)(=O)=O)cc3)c2c(=O)n1-c1ccccc1`: the results for the IC50 against PIK3CB (Human), against PIK3CG (human) and against PIK3CD (Human) were greater than 10 µM, less than 0.1 µM and less than 0.1 µM, respectively.
With `COc1cnc(-c2cccc3cc([C@H](C)Nc4nc(N)ncc4C#N)n(-c4ccccc4)c(=O)c23)nc1`, the IC50 against PIK3CB (Human) was greater than 10 µM; on PIK3CA (human), greater than 10 µM; against PIK3CG (human) it was 0.1 to 1 µM.
Regarding `CCOc1ncc(-c2cnc(N)nc2N[C@@H](C)c2cc3cccc(Cl)c3c(=O)n2-c2ccccc2)s1`, the values for the 50% inhibitory concentration (IC50) against PIK3CB (Human), against PIK3CG (human) and on PIK3CD (Human) were 0.1 to 1 µM, less than 0.1 µM and less than 0.1 µM, respectively.
With `C[C@H](Nc1nc(N)ncc1NC(=O)c1ccccc1)c1cc2cccc(Cl)c2c(=O)n1-c1ccccc1`, the IC50 on PIK3CB (Human) and at PIK3CA (human) was greater than 10 µM each time.
In the case of `COc1cc(-c2cccc3cc([C@H](C)Nc4nc(N)ncc4-c4cccnc4)n(-c4ccccc4)c(=O)c23)ccn1`, the half-maximal inhibitory concentration (IC50) against PIK3CB (Human) was greater than 10 µM; against PIK3CG (human), 0.1 to 1 µM; against PIK3CD (Human) it was 0.1 to 1 µM.
Regarding `CCN(C)C(=O)c1cnc(N)nc1N[C@@H](C)c1cc2cccc(-c3ccnc(OC)c3)c2c(=O)n1-c1ccccc1`, the IC50 at PIK3CB (Human) was greater than 10 µM; against PIK3CA (human), greater than 10 µM; at PIK3CG (human) it was 0.1 to 1 µM.
With `C[C@H](Nc1nc(N)ncc1C#N)c1cc2cccc(Cl)c2c(=O)n1-c1cc(F)ccc1F`, the IC50 on PIK3CB (Human) is 0.1 to 1 µM; on PIK3CG (human) it was less than 0.1 µM; on PIK3CD (Human), less than 0.1 µM.
In the case of `C[C@H](Nc1nc(N)ncc1C#N)c1cc2cccc(-c3cccc(S(C)(=O)=O)c3)c2c(=O)n1-c1ccccc1`, the figures for the IC50 against PIK3CB (Human), against PIK3CG (human) and on PIK3CD (Human) were greater than 10 µM, less than 0.1 µM and less than 0.1 µM, respectively.
For the compound `C#Cc1cccc2cc([C@H](C)Nc3nc(N)ncc3C#N)n(-c3ccccc3)c(=O)c12`, the IC50 at PIK3CB (Human) is 0.1 to 1 µM; against PIK3CG (human) it was less than 0.1 µM; on PIK3CD (Human) it was less than 0.1 µM.
On to `C[C@H](Nc1cc(Cl)ncn1)c1cc2cccc(Cl)c2c(=O)n1-c1ccccc1`, for which the IC50 at PIK3CB (Human) and on PIK3CA (human) was greater than 10 µM each time.
Consider `COc1cc(N[C@@H](C)c2cc3cccc(Cl)c3c(=O)n2-c2ccccc2)nc(N)n1`, for which the IC50 at PIK3CB (Human) and against PIK3CA (human) was greater than 10 µM throughout.
Consider `C[C@H](Nc1nc(N)ncc1-c1cncs1)c1cc2cccc(Cl)c2c(=O)n1-c1ccccc1`, for which the IC50 against PIK3CB (Human) was 0.1 to 1 µM; against PIK3CG (human), less than 0.1 µM; against PIK3CD (Human) it was less than 0.1 µM.
`C[C@H](Nc1nc(N)ncc1C(=O)N(C)C)c1cc2cccc(Cl)c2c(=O)n1-c1ccccc1`: the IC50 is 0.1 to 1 µM on PIK3CB (Human), less than 0.1 µM on PIK3CG (human) and less than 0.1 µM at PIK3CD (Human).
With `C[C@H](Nc1nc(N)ncc1C#N)c1cc2cccc(-c3ccnnc3)c2c(=O)n1-c1ccccc1`, the IC50 against PIK3CB (Human) was greater than 10 µM; on PIK3CG (human), 0.1 to 1 µM; against PIK3CD (Human), less than 0.1 µM.
With `C[C@H](Nc1nc(N)ncc1C#N)c1cc2cccc(Cl)c2c(=O)n1-c1ccon1`, the IC50 is 0.1 to 1 µM at PIK3CB (Human), less than 0.1 µM against PIK3CG (human) and less than 0.1 µM against PIK3CD (Human).
Consider `CCOc1nc(-c2cnc(N)nc2N[C@@H](C)c2cc3cccc(Cl)c3c(=O)n2-c2ccccc2)cs1`, for which the IC50 against PIK3CB (Human), at PIK3CG (human) and against PIK3CD (Human) was less than 0.1 µM in each case.
Consider `C[C@H](Nc1nc(N)ncc1C#N)c1nc2cccc(Cl)c2c(=O)n1-c1ccccc1`, for which the IC50 was 0.1 to 1 µM against PIK3CB (Human), less than 0.1 µM at PIK3CG (human) and less than 0.1 µM against PIK3CD (Human).
With `COc1cccc2cc([C@H](C)Nc3nc(N)ncc3C#N)n(-c3ccccc3)c(=O)c12`, the IC50 was greater than 10 µM on PIK3CB (Human), greater than 10 µM against PIK3CA (human) and 0.1 to 1 µM at PIK3CG (human).
`CNc1cc(-c2cccc3cc([C@H](C)Nc4nc(N)ncc4C#N)n(-c4ccccc4)c(=O)c23)ccn1`: the IC50 against PIK3CB (Human) is greater than 10 µM; against PIK3CG (human) it was less than 0.1 µM; at PIK3CD (Human), less than 0.1 µM.
As to `COc1ccc(-c2cccc3cc([C@H](C)Nc4nc(N)ncc4C#N)n(C4CC4)c(=O)c23)cn1`, the IC50 is 0.1 to 1 µM at PIK3CB (Human), less than 0.1 µM on PIK3CG (human) and less than 0.1 µM on PIK3CD (Human).
With `C[C@H](Nc1nc(N)ncc1C#N)c1cc2cccc(Cl)c2c(=O)n1-c1cscn1`, the IC50 against PIK3CB (Human), against PIK3CG (human) and against PIK3CD (Human) was less than 0.1 µM throughout.
`Cc1ncc(-c2cccc3cc([C@H](C)Nc4nc(N)ncc4C#N)n(-c4ccccc4)c(=O)c23)cn1`: the IC50 against PIK3CB (Human) is greater than 10 µM; on PIK3CG (human), less than 0.1 µM; on PIK3CD (Human), less than 0.1 µM.
Take `C[C@H](Nc1nc(N)ncc1-c1cscn1)c1cc2cccc(Cl)c2c(=O)n1-c1ccccc1`: the results for the IC50 on PIK3CB (Human), against PIK3CG (human) and against PIK3CD (Human) were 0.1 to 1 µM, less than 0.1 µM and less than 0.1 µM, respectively.
As for `C[C@H](Nc1cc(N)ncn1)c1cc2cccc(Cl)c2c(=O)n1-c1ccccc1`, the IC50 on PIK3CB (Human) was greater than 10 µM; at PIK3CA (human), greater than 10 µM; against PIK3CD (Human) it was 0.1 to 1 µM.

Broadly, the IC50 is the concentration that gives 50% inhibition. Read a high IC50 as weaker potency.
